{
  "source": "patent US9808470B2",
  "about": "“Estrogenic components for use in the treatment of neurological disorders” (UNIVERSITE DE LIEGE, priority 2012, dated 2017)",
  "key": {"[1]": {"test_system": "vascular endothelial growth factor (VEGF)", "experiment": "Ex.3 neuroprotective HIE rat model: VEGF staining", "assay_type": "in vivo", "experimental": "The sections were heated in 10 mmol/L citrate buffer (pH 6.0) at 100° C. for 10 minutes. Endogenous peroxidase activity was blocked with 3% hydrogen peroxide for 10 minutes and after a second blocking with 5% normal goat serum, the sections were incubated with anti-doublecortin (DCX) antibody, diluted 1:1000 (rabbit polyclonal antibody; Abcam, Cambridge, UK) and anti-vascular endothelial growth factor (VEGF) antibody, diluted 1:100 (mouse monoclonal antibody; Abcam, Cambridge, UK) overnight at 4° C. After rinsing, Alexa Fluor® goat anti-rabbit, diluted 1:1000 and Alexa Fluor® goat anti-mouse, diluted 1:1000 (Invitrogen Inc., Ghent, Belgium) were added and sections were incubated 1 h at room temperature. Mounting medium containing 4′,6-diamidino-2-phenylindole (DAPI) for fluorescent studies was used (Vector Laboratories). Samples were analyzed with the aid of a microscope (Olympus Vanox AHBT3, Olympus), and the ImageJ software (NIH). The percentage of positively stained cells was quantified as a sum of positively stained either DCX or VEGF cells divided by the total number of DAPI positive cells expressed in percentage.\nNewborn rat pups were assigned to one of the following 6 groups from postnatal day 4: Sham group (n=24), Vehicle group (n=14), E4 1 mg/kg/per day group (n=11), E4 5 mg/kg/per day group (n=14), E4 10 mg/kg/per day group (n=14), or E4 50 mg/kg/per day group (n=19). From postnatal day 4, rat pups were intraperitoneally injected either vehicle (Vehicle group) or E4 (1, 5, 10, or 50 mg/kg/per day in accordance to the E4 group assignment) or neither vehicle nor E4 (Sham group). At day 7, 30 minutes after last injection, animals were anesthetized with isoflurane (induction, 3.0%; maintenance, 1.5%), and the rat pups from Vehicle and E4 groups passed through surgery encompassing left common carotid artery double ligation and cut. After the procedure, the pups were returned to their dams and were allowed to recover for 1 hour. The pups were then placed in the humidified hypoxic in vivo cabinet (CoyLab, Grass Lake, Mich., USA). Hypoxia was produced by the inhalation of 11%-8% of oxygen balanced by nitrogen at decreased concentration of oxygen for 20 minutes, followed by inhalation of 8% oxygen and 92% nitrogen at constant concentration for 35 minutes. All the manipulations were performed at 37° C. The Sham group went through similar procedures without left common carotid artery ligation followed by hypoxia nor injection. Rat pups recovered with their dams and reared normally until being sacrificed at postnatal day 14."}, "CD11b-positive cells": {"test_system": "CD11b-positive cells", "experiment": "Ex.6 IL-1β induced diffuse white matter injury mouse model: microglial phenotype gene expression (qRT-PCR)", "assay_type": "in vivo", "experimental": "Experimental protocols were approved by the institutional guidelines of the Institut National de la Santé et de la Recherche Scientifique (Inserm, France), and met the guidelines for the United States Public Health Service's Policy on Humane Care and Use of Laboratory Animals (NIH, Bethesda, Md., USA). Experiments were performed using OF1 strain mice purchased from Charles River (L'Arbresle, France) and born in our animal facility. Animals were housed under a 12 h light-dark cycle, had access to food and water ad libitum. Sex was determined at birth and confirmed at sacrifice. To avoid any potential variability linked to sex to differences. only male pups were used. Mice received twice a day from P1 to P4 and once on P5 a 5 μl intraperitoneal injection containing either PBS alone (sham group) or 10 μg/kg/dose recombinant mouse IL-1β in PBS. Vehicle group received only IL-1β injections while 10 μg E4 (5 mg/kg) or 20 μg E4 (10 mg/kg) was added to IL-1β once a day from P1 to P5 for E4 treated groups. Pups were sacrificed 3 hours after the first intraperitoneal injection at P1, 3 hours after last treatment at P5 or at P10 by intracardiac perfusion with NaCl 0.9% after anaesthesia by inhaled isoflurane.\nAt P1 and P5, brains were collected for cell dissociation and CD11b-positive (P1 and P5) and O4-positive (P5) cell enrichment using a magnetic coupled antibody extraction technique (MACS), as previously described and according to the manufacturer's protocol (Miltenyi Biotec, Bergisch Gladbach, Germany). The CD11b antigen is expressed on the surface of microglial cells while the O4 antigen is expressed on the cell surface of pre-OLs (Back et al., 2001). Briefly, after removing the cerebellum and olfactory bulbs, brains were pooled (n=3 at P1 and n=2 at P5) and dissociated using the neural tissue dissociation kit containing papain. From the resulting brain homogenate CD11b-positive cells (P1) and O4-positive then CD11b-positive cells (P5) were enriched by MACS, using the anti-CD11b or anti-O4 MicroBeads. After elution the isolated cells were centrifuged for 5 min at 600 g at 4° C. and conserved at −80° C.\nPreparation of samples for quantitative reverse-transcriptase polymerase-chain reaction (qRT-PCR), primer design, and PCR protocol, were similar to that previously described (Favrais et al., 2011; Chhor et al., 2013). Briefly, RNA extraction was performed by with RNeasy mini kit according to the manufacturer's instructions (Qiagen, Courtaboeuf, France). RNA quality and concentration were assessed by spectrophotometry with the Nanodrop™ apparatus (Thermoscientific, Wilmington, Del., USA). Total RNA (0.5-1 μg) was subjected to reverse transcription using the iScript™ cDNA synthesis kit (Bio-Rad, Marnes-la-Coquette, France). qPCR was using SYBR Green Supermix (Bio-Rad). The relative expression of genes of interest (GOI) were expressed relative to expression of the reference gene, ribosomal protein L13a (Rpl13a) for CD11b+ cells and Glyceraldehyde 3-phosphate dehydrogenase (GAPDH) for O4+ cells and anterior brains based on reference gene suitability testing. Analyses were performed with the Biorad CFX manager 2.1 software. The relative quantities are expressed as the specific ratio between the gene of interest and Rpl13 or GAPDH. The data are presented as relative mRNA units with respect to control values (expressed as a fold-difference with respect to the mean of sham values)."}, "[2]": {"settings": "IL-1β P1 to P5 + E4 10 mg/kg, P5"}, "[3]": {"settings": "IL-1β+E4 5 mg/kg ip, P1, 3 h post-treatment, vs IL-1β group"}, "[4]": {"settings": "IL-1β+E4 5 and 10 mg/kg ip, P1, vs IL-1β group"}},
  "data": [
    {"smiles": "C[C@]12CC[C@@H]3c4ccc(O)cc4CC[C@H]3[C@@H]1[C@@H](O)[C@@H](O)[C@@H]2O", "note": "[E4, 1,3,5(10)-estratrien-3,15α,16α,17β-tetrol]", "values": [
      {"measurement": "percentage of VEGF positively stained cells", "setting": "[1]; 1 mg/kg E4 ip PND4-7 before HI, CA2/CA3", "value": "34.1±6.855", "unit": "%"},
      {"measurement": "percentage of VEGF positively stained cells", "setting": "[1]; 1 mg/kg E4 ip PND4-7 before HI, DG", "value": "43.5±2.083", "unit": "%"},
      {"measurement": "percentage of VEGF positively stained cells", "setting": "[1]; 5 mg/kg E4 ip PND4-7 before HI, DG", "value": "46.0±4.361", "unit": "%"},
      {"measurement": "percentage of VEGF positively stained cells", "setting": "[1]; 10 mg/kg E4 ip PND4-7 before HI, CA1", "value": "37.4±7.645", "unit": "%"},
      {"measurement": "percentage of VEGF positively stained cells", "setting": "[1]; 10 mg/kg E4 ip PND4-7 before HI, DG", "value": "47.0±5.362", "unit": "%"},
      {"measurement": "percentage of VEGF positively stained cells", "setting": "[1]; 10 mg/kg E4 ip PND4-7 before HI, cortex", "value": "46.2±7.646", "unit": "%"},
      {"measurement": "percentage of VEGF positively stained cells", "setting": "[1]; 50 mg/kg E4 ip PND4-7 before HI, DG", "value": "46.0±4.465", "unit": "%"},
      {"measurement": "over-expression of IL1Rn (M2b)", "setting": "CD11b-positive cells; IL-1β P1 to P5 + E4 5 mg/kg, P5", "value": "significantly limited"},
      {"measurement": "inflammation induced over-expression of IL1Rn (M2b)", "setting": "CD11b-positive cells; [2]", "value": "prevented"},
      {"measurement": "inflammation induced over-expression of IL4Ra (M2b)", "setting": "CD11b-positive cells; [2]", "value": "prevented"},
      {"measurement": "inflammation induced over-expression of iNOS (M1)", "setting": "CD11b-positive cells; [2]", "value": "prevented"},
      {"measurement": "expression of CD32 mRNA (M1)", "setting": "CD11b-positive cells; [3]", "value": "significantly down-regulated"},
      {"measurement": "expression of CD86 mRNA (M1)", "setting": "CD11b-positive cells; [3]", "value": "significantly down-regulated"},
      {"measurement": "expression of genes associated with the M2a repair/regeneration phenotype", "setting": "CD11b-positive cells; IL-1β+E4 10 mg/kg ip, P1", "value": "non-significant trend to the up-regulation"},
      {"measurement": "expression of Ptgs2 mRNA (M1)", "setting": "CD11b-positive cells; IL-1β+E4 10 mg/kg ip, P1, vs IL-1β group", "value": "significantly decreased"},
      {"measurement": "expression of IL1RN (M2b)", "setting": "CD11b-positive cells; [4]", "value": "decreased"},
      {"measurement": "expression of Sphk1 (M2b)", "setting": "CD11b-positive cells; [4]", "value": "decreased"},
      {"measurement": "iNOS mRNA (M1)", "setting": "CD11b-positive cells; [4]", "value": "significantly decreased"}
    ]}
  ]
}
